Source: patent publication US20150087673A1, “METHODS FOR USING AND BIOMARKERS FOR AMPK-ACTIVATING COMPOUNDS” (RIGEL PHARMACEUTICALS, INC., priority 2013, published 2015)

System: AMPK
Test: AMPK activation assay (enzyme-linked immunosorbent assay)
Assay type: cell-based
Procedure, shortened: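 Activator screen performed per well-known kit methods.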

| SMILES | EC50 [nM] |
| --- | --- |
| COc1ccc(CN2CCC(N(C)C(=O)c3ccc(C(=O)N4CCC(C(=O)c5ccc(OC)cc5)CC4)nc3)CC2)cc1 [Compound 484, 6-(4-(4-methoxybenzoyl)piperidine-1-carbonyl)-N-(1-(4-methoxybenzyl)piperidin-4-yl)-N-methylnicotinamide] | < 500 |
| CC(=O)c1ccc(Oc2ccc(NC(=O)c3ccc(C(=O)N4CCC(Oc5ccc(S(C)(=O)=O)cc5)CC4)nc3)cn2)cc1 [Compound 485, N-(6-(4-acetylphenoxy)pyridin-3-yl)-6-(4-(4-(methylsulfonyl)phenoxy)piperidine-1-carbonyl)nicotinamide] | < 500 |
| CC(=O)c1ccc(Oc2ccc(NC(=O)c3ccc(C(=O)N4CCC(Oc5ccc(S(=O)(=O)C6CC6)cc5)CC4)nc3)cn2)cc1 [Compound 486, N-(6-(4-acetylphenoxy)pyridin-3-yl)-6-(4-(4-(cyclopropylsulfonyl)phenoxy)piperidine-1-carbonyl)nicotinamide] | < 500 |
| CC(=O)c1ccc(Oc2ccc(NC(=O)c3ccc(C(=O)N4CCN(c5ccc(S(C)(=O)=O)cc5)CC4)nc3)cn2)cc1 [Compound 487, N-(6-(4-acetylphenoxy)pyridin-3-yl)-6-(4-(4-(methylsulfonyl)phenyl)piperazine-1-carbonyl)nicotinamide] | 1000 to 5000 |
| CC(=O)c1ccc(Oc2ccc(NC(=O)c3ccc(C(=O)N4CCC(Oc5ccc(C(=O)N(C)C)cc5)CC4)nc3)cn2)cc1 [Compound 488, N-(6-(4-acetylphenoxy)pyridin-3-yl)-6-(4-(4-(dimethylcarbamoyl)phenoxy)piperidine-1-carbonyl)nicotinamide] | < 500 |
| CC(=O)c1ccc(Oc2ccc(NC(=O)c3ccc(C(=O)N4CCN(c5ccc(S(=O)(=O)C(C)C)cc5)CC4)nc3)cn2)cc1 [Compound 489, N-(6-(4-acetylphenoxy)pyridin-3-yl)-6-(4-(4-(isopropylsulfonyl)phenyl)piperazine-1-carbonyl)nicotinamide] | < 500 |
| COc1ccc(C(=O)C2CCN(C(=O)c3ccc(C(=O)NC4CCN(Cc5ccc(C(=O)N(C)C)cc5)CC4)cn3)CC2)cc1 [Compound 490, N-(1-(4-(dimethylcarbamoyl)benzyl)piperidin-4-yl)-6-(4-(4-methoxybenzoyl)piperidine-1-carbonyl)nicotinamide] | 1000 to 5000 |
| N#Cc1ccc(CN2CCC(NC(=O)c3ccc(N4CCN(Cc5ccc(F)cc5)CC4)nn3)CC2)cc1 [Compound 491, N-(1-(4-cyanobenzyl)piperidin-4-yl)-6-(4-(4-fluorobenzyl)piperazin-1-yl)pyridazine-3-carboxamide] | 1000 to 5000 |
| N#Cc1ccc(CN2CCC(NC(=O)c3ccc(C(=O)N4CCC(Oc5ccc(S(F)(F)(F)(F)F)cc5)CC4)cn3)CC2)cc1 [Compound 492, N-(1-(4-cyanobenzyl)piperidin-4-yl)-5-(4-(4-(pentafluorosulfanyl)phenoxy)piperidine-1-carbonyl)picolinamide] | < 500 |
| N#Cc1ccc(CN2CCC(NC(=O)c3ccc(C(=O)N4CCC(Oc5ccc(S(F)(F)(F)(F)F)cc5)CC4)nc3)CC2)cc1 [Compound 493, N-(1-(4-cyanobenzyl)piperidin-4-yl)-6-(4-(4-(pentafluorosulfanyl)phenoxy)piperidine-1-carbonyl)nicotinamide] | < 500 |
| O=C(NC1CCN(Cc2ccc(OC(F)(F)F)cc2)CC1)c1ccc(C(=O)N2CCC(Oc3ccc(S(F)(F)(F)(F)F)cc3)CC2)nc1 [Compound 494, 6-(4-(4-(pentafluorosulfanyl)phenoxy)piperidine-1-carbonyl)-N-(1-(4-(trifluoromethoxy)benzyl)piperidin-4-yl)nicotinamide] | < 500 |
| COc1ccc(CN2CCC(NC(=O)c3ccc(C(=O)N4CCC(Oc5ccc(S(F)(F)(F)(F)F)cc5)CC4)nc3)CC2)cc1 [Compound 495, N-(1-(4-methoxybenzyl)piperidin-4-yl)-6-(4-(4-(pentafluorosulfanyl)phenoxy)piperidine-1-carbonyl)nicotinamide] | < 500 |
| O=C(Nc1ccc(Oc2ccc(F)cc2)nc1)c1ccc(C(=O)N2CCC(Oc3ccc(S(F)(F)(F)(F)F)cc3)CC2)nc1 [Compound 496, N-(6-(4-fluorophenoxy)pyridin-3-yl)-6-(4-(4-(pentafluorosulfanyl)phenoxy)piperidine-1-carbonyl)nicotinamide] | < 500 |
| N#Cc1ccc(Oc2ccc(NC(=O)c3ccc(C(=O)N4CCC(Oc5ccc(S(F)(F)(F)(F)F)cc5)CC4)nc3)cn2)cc1 [Compound 497, N-(6-(4-cyanophenoxy)pyridin-3-yl)-6-(4-(4-(pentafluorosulfanyl)phenoxy)piperidine-1-carbonyl)nicotinamide] | < 500 |
| COc1ccc(C(=O)C2CCN(C(=O)c3ccc(C(=O)NC4CCN(Cc5ccc(C#N)cc5)CC4(F)F)cn3)CC2)cc1 (stereo not drawn) [Compound 498, N-(1-(4-cyanobenzyl)-3,3-difluoropiperidin-4-yl)-6-(4-(4-methoxybenzoyl)piperidine-1-carbonyl)nicotinamide] | < 500 |
